Residues, ends and D or L forms follow the SMILES beside them.
System: SmDPP7 R218A mutant
Assay: Kinetic parameters toward dipeptidyl MCA
Assay type: biochemical, Stenotrophomonas maltophilia
Set-up: key: “–” means not determined due to low activity
Settings: not given
Procedure: (§1) To test the roles of the residues located in the S2 subsite for P2 residue recognition by SmDPP7, we replaced the following residues with alanine and analysed the enzymatic activities of the mutant enzymes on synthetic substrates, Gly-Tyr-MCA, Tyr-Tyr-MCA, and Asn-Tyr-MCA (Table 2). The mutated residues and their estimated roles were: Lys206, Arg218, Thr220, and Phe671 for interaction with the P2 side chain.
(§2) Kinetic parameters were determined by fitting the experimental data to the Michaelis–Menten equation using Excel Solver (Microsoft, WA, US) by nonlinear least-squares fitting with different concentrations of glycyl-L-tyrosyl-4-methylcoumaryl-7-amide (3.91, 7.81, 15.6, 31.3, 62.5, 125, 250, and 500 µM; Gly-Tyr-MCA; GenScript, NJ, US), L-tyrosyl-L-tyrosyl-4-methylcoumaryl-7-amide (1.56, 3.13, 6.25, 12.5, 25, 50, 100, and 200 µM; Tyr-Tyr-MCA; GenScript, NJ, US), L-asparaginyl-L-tyrosyl-4-methylcoumaryl-7-amide (1.56, 3.13, 6.25, 12.5, 25, 50, 100, and 200 µM; Asn-Tyr-MCA; GenScript, NJ, US), and L-leucinyl-L-asparaginic acid-4-methylcoumaryl-7-amide (0.781, 1.56, 3.13, 6.25, 12.5, 25, 50, and 100 µM; Leu-Asp-MCA; Peptide Institute, Osaka, Japan) as a substrate. The enzyme reaction was performed in a reaction buffer consisting of 50 mM sodium phosphate buffer pH 7.0, 5 mM EDTA, and 0.005% Tween 20 at 298 K for 20 min and standard deviations were calculated from three independent experiments. […] For SmDPP7 (wild-type and mutants), concentrations of the purified enzymes were 10, 2, and 2 nM for the hydrolyses of Gly-Tyr-MCA, Tyr-Tyr-MCA, and Asn-Tyr-MCA, respectively. Concentration of purified PgDPP7 used for determining kinetic parameters of Tyr-Tyr-MCA hydrolysis was 25 nM. For SmDPP11 and PgDPP11, concentrations of the purified enzymes used for determining kinetic parameters of Leu-Asp-MCA hydrolysis were 0.5 nM and 1 nM, respectively. The fluorescence intensity of the released MCA was measured with excitation at 355 nm and emission at 460 nm using an Infinite 200 PRO microplate reader (Tecan, Switzerland).

| Compound | Km | kcat | kcat/Km |
| --- | --- | --- | --- |
| glycyl-L-tyrosyl-4-methylcoumaryl-7-amide [Gly-Tyr-MCA] | – | – | – |
| L-asparaginyl-L-tyrosyl-4-methylcoumaryl-7-amide [Asn-Tyr-MCA] | – | – | – |
| L-tyrosyl-L-tyrosyl-4-methylcoumaryl-7-amide [Tyr-Tyr-MCA] | – | – | – |

System: SmDPP7 R218Q mutant
Assay: Kinetic parameters toward dipeptidyl MCA
Assay type: biochemical, Stenotrophomonas maltophilia
Settings: not given

| Compound | Km [µM] | kcat [s⁻¹] |
| --- | --- | --- |
| glycyl-L-tyrosyl-4-methylcoumaryl-7-amide [Gly-Tyr-MCA] | 717 ± 63 | 0.0365 ± 0.0018 |
| L-asparaginyl-L-tyrosyl-4-methylcoumaryl-7-amide [Asn-Tyr-MCA] | 390 ± 14 | 0.198 ± 0.006 |
| L-tyrosyl-L-tyrosyl-4-methylcoumaryl-7-amide [Tyr-Tyr-MCA] | 275 ± 11 | 0.0403 ± 0.0004 |

Molecular target: SmDPP7
Assay: Inhibition assay using dipeptide library, Tyr-Tyr-MCA hydrolysis
Assay type: biochemical, Stenotrophomonas maltophilia
Settings: Xaa-Tyr as competitive inhibitor; substrate 200 µM Tyr-Tyr-MCA; pH 7.0, 298 K; Ki from IC50 by Cheng-Prusoff
Procedure: Figure 1 Effect of Xaa-Tyr dipeptides on the hydrolytic activity of SmDPP7 towards synthetic substrate Tyr-Tyr-MCA. Inhibition assay was performed as described in “Materials and methods”. Residual activity was measured under conditions where 200 µM Xaa-Tyr dipeptide and 200 µM Tyr-Tyr-MCA, synthetic substrate were added into the reaction solution. […] The standard deviations were obtained from three independent experiments.
(§3) The dipeptide library was purchased from AnaSpec (Fremont, CA, US). Ile-Tyr and Arg-Tyr were synthesized by Eurofins Genomics (Tokyo, Japan). Cys-Tyr and Cys-Asp could not be purchased commercially. Different concentrations (3.13, 6.25, 12.5, 25, 50, 100, and 200 µM) of dipeptides as the inhibitor and 200 µM Tyr-Tyr-MCA (GenScript, NJ, US) as the substrate for DPP7 were added into a reaction buffer consisting of 50 mM sodium phosphate buffer pH 7.0, 5 mM EDTA and 0.005% Tween 20. For DPP11s, different concentrations (1.56, 3.13, 6.25, 12.5, 25, 50, and 100 µM) of dipeptides as the inhibitor and 100 µM Leu-Asp-MCA (Peptide Institute, Osaka, Japan) as the substrate were used. The enzyme reaction was performed at 298 K for 20 min and standard deviations were calculated from three independent experiments. Half-maximal inhibitory concentration (IC50) values were determined by fitting to a sigmoid curve (4-parameter logistic curve) using ImageJ software[35] and inhibition constants (Ki) were calculated using the Cheng-Prusoff Equation[36]. The fluorescence intensity of the released MCA was measured with the same method of determination of kinetics parameters toward dipeptidyl MCA.

| Compound | Ki [µM] |
| --- | --- |
| Pro-Tyr | > 58 |
| Ser-Tyr | > 58 |
| Glu-Tyr | > 58 |
| His-Tyr | > 58 |
| Gly-Tyr | > 58 |
| Ala-Tyr | > 58 |
| Asp-Tyr | > 58 |

System: not given
Assay: not given
Settings: of the amino acid; ref 25,26 (Sereda et al. and Mohera et al.); cited from earlier work

| Compound | H.I. of P2 aa (hydrophobicity index) |
| --- | --- |
| N[C@@H](Cc1ccc(O)cc1)C(=O)O [Tyr] | 63 |
| C[C@H](N)C(=O)O [Ala] | 41 |
| N[C@@H](Cc1c[nH]cn1)C(=O)O [His] | 8 |
| CC[C@H](C)[C@H](N)C(=O)O [Ile] | 99 |
| CSCC[C@H](N)C(=O)O [Met] | 74 |
| CC(C)[C@H](N)C(=O)O [Val] | 76 |
| N[C@@H](Cc1c[nH]c2ccccc12)C(=O)O [Trp] | 97 |
| N[C@@H](Cc1ccccc1)C(=O)O [Phe] | 100 |

System: wild-type SmDPP7
Assay: Kinetic parameters toward dipeptidyl MCA
Assay type: biochemical, Stenotrophomonas maltophilia
Settings: pH 7.0, 298 K
Procedure: as §2

| Compound | Km [µM] | kcat [s⁻¹] |
| --- | --- | --- |
| glycyl-L-tyrosyl-4-methylcoumaryl-7-amide [Gly-Tyr-MCA] | 183 ± 4 | 0.702 ± 0.022 |
| L-asparaginyl-L-tyrosyl-4-methylcoumaryl-7-amide [Asn-Tyr-MCA] | 51.3 ± 1.6 | 3.67 ± 0.12 |
| L-tyrosyl-L-tyrosyl-4-methylcoumaryl-7-amide [Tyr-Tyr-MCA] | 81.7 ± 3.4 | 3.83 ± 0.09 |

Molecular target: PgDPP11 (Porphyromonas gingivalis, UniProt B2RID1)
Assay: biochemical
Settings: not given
Procedure: Figure 2 Correlation diagrams between the hydrophobicity index (H.I.) of P2-amino acid and residual DPP activities of S46 peptidases. (a) SmDPP7. The outlier dipeptides Asn-Tyr and Trp-Tyr are coloured in red and blue, respectively (see text). (b) PgDPP7. Tyr-Tyr-MCA hydrolysis of PgDPP7 was inhibited by Xaa-Tyr dipeptide. Residual activity was measured under conditions where 200 µM dipeptides and 200 µM Tyr-Tyr-MCA were added into the reaction solution. (c) DPP11 from S. maltophilia (SmDPP11). (d) PgDPP11. For DPP11s, Leu-Asp-MCA hydrolysis was inhibited by Xaa-Asp dipeptide. Residual activity was measured under conditions where 100 µM dipeptides and 100 µM Leu-Asp-MCA were added into the reaction solution. The hydrophobicity indices of the amino acids were adopted from Sereda et al., 1994 and Mohera et al. 1995[25],[26]. R is the correlation coefficient. The standard deviations were obtained from three independent experiments.
as §3

Sequence of PgDPP11 (B2RID1 22-720): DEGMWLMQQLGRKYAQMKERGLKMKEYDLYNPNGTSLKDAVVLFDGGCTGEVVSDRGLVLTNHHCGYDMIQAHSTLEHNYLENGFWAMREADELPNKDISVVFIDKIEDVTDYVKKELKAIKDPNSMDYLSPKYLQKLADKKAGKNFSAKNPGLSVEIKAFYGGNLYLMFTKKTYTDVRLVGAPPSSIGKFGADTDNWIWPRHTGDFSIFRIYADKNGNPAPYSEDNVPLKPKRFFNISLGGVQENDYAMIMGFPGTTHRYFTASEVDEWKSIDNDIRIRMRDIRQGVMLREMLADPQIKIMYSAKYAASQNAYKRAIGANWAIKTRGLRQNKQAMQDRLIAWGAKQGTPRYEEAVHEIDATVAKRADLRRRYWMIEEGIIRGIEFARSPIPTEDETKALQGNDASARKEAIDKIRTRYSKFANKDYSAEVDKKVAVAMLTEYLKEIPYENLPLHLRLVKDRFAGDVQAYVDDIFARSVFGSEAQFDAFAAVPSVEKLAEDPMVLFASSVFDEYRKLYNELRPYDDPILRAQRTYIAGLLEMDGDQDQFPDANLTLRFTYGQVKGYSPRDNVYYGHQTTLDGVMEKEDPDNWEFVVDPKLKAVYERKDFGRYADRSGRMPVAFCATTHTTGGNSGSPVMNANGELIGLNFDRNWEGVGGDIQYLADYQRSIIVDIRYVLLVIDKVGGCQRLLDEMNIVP

| Compound | Ki [µM] |
| --- | --- |
| CSCC[C@H](N)C(=O)N[C@@H](CC(=O)O)C(=O)O [Met-Asp] (H-Met-Asp-OH) | > 5.11 |
| NC(=O)C[C@H](N)C(=O)N[C@@H](CC(=O)O)C(=O)O [Asn-Asp] (H-Asn-Asp-OH) | 4.06 ± 0.16 |
| NCC(=O)N[C@@H](CC(=O)O)C(=O)O [Gly-Asp] (H-Gly-Asp-OH) | > 5.11 |
| C[C@@H](O)[C@H](N)C(=O)N[C@@H](CC(=O)O)C(=O)O [Thr-Asp] (H-Thr-Asp-OH) | > 5.11 |
| O=C(O)C[C@H](NC(=O)[C@@H]1CCCN1)C(=O)O [Pro-Asp] (H-Pro-Asp-OH) | > 5.11 |
| N=C(N)NCCC[C@H](N)C(=O)N[C@@H](CC(=O)O)C(=O)O [Arg-Asp] (H-Arg-Asp-OH) | > 5.11 |
| N[C@@H](Cc1ccccc1)C(=O)N[C@@H](CC(=O)O)C(=O)O [Phe-Asp] (H-Phe-Asp-OH) | 5.11 ± 0.06 |
| N[C@@H](CO)C(=O)N[C@@H](CC(=O)O)C(=O)O [Ser-Asp] (H-Ser-Asp-OH) | > 5.11 |
| N[C@@H](Cc1c[nH]c2ccccc12)C(=O)N[C@@H](CC(=O)O)C(=O)O [Trp-Asp] (H-Trp-Asp-OH) | 1.36 ± 0.06 |
| CC[C@H](C)[C@H](N)C(=O)N[C@@H](CC(=O)O)C(=O)O [Ile-Asp] (H-Ile-Asp-OH) | > 5.11 |
| CC(C)C[C@H](N)C(=O)N[C@@H](CC(=O)O)C(=O)O [Leu-Asp] (H-Leu-Asp-OH) | 3.35 ± 0.23 |
| N[C@@H](CC(=O)O)C(=O)N[C@@H](CC(=O)O)C(=O)O [Asp-Asp] (H-Asp-Asp-OH) | > 5.11 |
| NCCCC[C@H](N)C(=O)N[C@@H](CC(=O)O)C(=O)O [Lys-Asp] (H-Lys-Asp-OH) | > 5.11 |
| NC(=O)CC[C@H](N)C(=O)N[C@@H](CC(=O)O)C(=O)O [Gln-Asp] (H-Gln-Asp-OH) | > 5.11 |
| CC(C)[C@H](N)C(=O)N[C@@H](CC(=O)O)C(=O)O [Val-Asp] | > 5.11 |
| N[C@@H](Cc1c[nH]cn1)C(=O)N[C@@H](CC(=O)O)C(=O)O [His-Asp] (H-His-Asp-OH) | > 5.11 |
| N[C@@H](CCC(=O)O)C(=O)N[C@@H](CC(=O)O)C(=O)O [Glu-Asp] (H-Glu-Asp-OH) | > 5.11 |
| N[C@@H](Cc1ccc(O)cc1)C(=O)N[C@@H](CC(=O)O)C(=O)O [Tyr-Asp] (H-Tyr-Asp-OH) | > 5.11 |
| C[C@H](N)C(=O)N[C@@H](CC(=O)O)C(=O)O [Ala-Asp] (H-Ala-Asp-OH) | > 5.11 |

System: SmDPP7 R218K mutant
Assay: Kinetic parameters toward dipeptidyl MCA
Assay type: biochemical, Stenotrophomonas maltophilia
Settings: not given
Procedure: as §1, §2

| Compound | Km [µM] | kcat [s⁻¹] |
| --- | --- | --- |
| glycyl-L-tyrosyl-4-methylcoumaryl-7-amide [Gly-Tyr-MCA] | 586 ± 40 | 0.0238 ± 0.0011 |
| L-asparaginyl-L-tyrosyl-4-methylcoumaryl-7-amide [Asn-Tyr-MCA] | 277 ± 6 | 0.183 ± 0.008 |
| L-tyrosyl-L-tyrosyl-4-methylcoumaryl-7-amide [Tyr-Tyr-MCA] | 251 ± 6 | 0.240 ± 0.003 |

System: SmDPP7 F671A mutant
Assay: Kinetic parameters toward dipeptidyl MCA
Assay type: biochemical, Stenotrophomonas maltophilia
Settings: not given
Procedure: as §1, §2

| Compound | Km [µM] | kcat [s⁻¹] |
| --- | --- | --- |
| glycyl-L-tyrosyl-4-methylcoumaryl-7-amide [Gly-Tyr-MCA] | 688 ± 38 | 0.191 ± 0.009 |
| L-asparaginyl-L-tyrosyl-4-methylcoumaryl-7-amide [Asn-Tyr-MCA] | 17.4 ± 1.4 | 0.230 ± 0.012 |
| L-tyrosyl-L-tyrosyl-4-methylcoumaryl-7-amide [Tyr-Tyr-MCA] | 463 ± 88 | 1.54 ± 0.18 |

System: SmDPP7 K206A mutant
Assay: Kinetic parameters toward dipeptidyl MCA
Assay type: biochemical, Stenotrophomonas maltophilia
Settings: not given
Procedure: as §1, §2

| Compound | Km [µM] | kcat [s⁻¹] |
| --- | --- | --- |
| glycyl-L-tyrosyl-4-methylcoumaryl-7-amide [Gly-Tyr-MCA] | 201 ± 10 | 0.751 ± 0.015 |
| L-asparaginyl-L-tyrosyl-4-methylcoumaryl-7-amide [Asn-Tyr-MCA] | 54.1 ± 2.1 | 3.47 ± 0.02 |
| L-tyrosyl-L-tyrosyl-4-methylcoumaryl-7-amide [Tyr-Tyr-MCA] | 55.8 ± 1.5 | 3.52 ± 0.04 |

System: SmDPP7 T220A mutant
Assay: Kinetic parameters toward dipeptidyl MCA
Assay type: biochemical, Stenotrophomonas maltophilia
Settings: not given
Procedure: as §1, §2

| Compound | Km [µM] | kcat [s⁻¹] |
| --- | --- | --- |
| glycyl-L-tyrosyl-4-methylcoumaryl-7-amide [Gly-Tyr-MCA] | 215 ± 10 | 0.454 ± 0.010 |
| L-asparaginyl-L-tyrosyl-4-methylcoumaryl-7-amide [Asn-Tyr-MCA] | 66.6 ± 1.5 | 2.60 ± 0.04 |
| L-tyrosyl-L-tyrosyl-4-methylcoumaryl-7-amide [Tyr-Tyr-MCA] | 46.4 ± 2.4 | 1.82 ± 0.07 |

— PMC8041751, “Structural basis for an exceptionally strong preference for asparagine residue at the S2 subsite of Stenotrophomonas maltophilia dipeptidyl peptidase 7” (Scientific Reports, 2021)
